Results taken from patent US12528801B2 (Givaudan SA, priority 2019, dated 2026).

Molecular target: T1, hTRPM8 (Homo sapiens, UniProt Q7Z2W7)
T1 construct: expressed in transfected cells
Test: Assay on TRPM8 modulators: calcium imaging (Fluo-4, Flexstation) in HEK293 cell line stably expressing hTRPM8
Format: cell-based
Settings: HEK293 cells stably expressing hTRPM8; calcium influx, Fluo-4, Flexstation 3; sigmoidal dose-response fit
Experimental: A HEK293 cell line stably expressing hTRPM8 was generated according to Klein of at, (Chem. Senses 36: […], 2011) and receptor activation was monitored by calcium imaging in a Flexstation. For Ca-imaging assays of TRPM8 channel activation, cells were seeded on day 0 at a density of 12000 cells per well in Dulbecco's modified Eagle medium (DMEM) containing 9% foetal bovine serum in black, clear bottom 96-well plates that had been coated with 0.001% polyethyleneimine (molecular weight=60 000, Acros Organics). On day 2, agonists were evaluated via calcium imaging using Fluo-4. Briefly, growth medium was discarded, and the cells were incubated in the dark for 1 h at 37° C. in 50 μL loading buffer consisting of 2.7 μM Fluo-4 AM (Invitrogen) and […] probenecid (Sigma-Aldrich) in DMEM (without serum). After incubation, the plates were washed five times with 100 μL of assay buffer (in mM: 130 NaCl, 5 KCl, 10 HEPES, 2 CaCl2, and 10 glucose, pH7.4.) and further incubated in the dark at room temperature for 30 min. The cells were then washed five times with 100 μL assay buffer and then calcium influx to serial dilutions of inventive compounds were measured in a Flexstation 3 (Molecular Devices). Receptor activation was initiated following addition of 20 μl of a 10-fold concentrated ligand stock solution, which is also prepared in assay buffer. Fluorescence was continuously monitored for 15 seconds prior to ligand addition and for 105 seconds after ligand addition, for a total of 120 seconds. Maximal receptor activation in relation to solvent control and relative to 31.6 μM menthol is determined. Data from serial dilutions were processed with a KNIME workflow to fit a sigmoidal dose-response curve and to extrapolate […].

T1 sequence (Q7Z2W7 whole entry): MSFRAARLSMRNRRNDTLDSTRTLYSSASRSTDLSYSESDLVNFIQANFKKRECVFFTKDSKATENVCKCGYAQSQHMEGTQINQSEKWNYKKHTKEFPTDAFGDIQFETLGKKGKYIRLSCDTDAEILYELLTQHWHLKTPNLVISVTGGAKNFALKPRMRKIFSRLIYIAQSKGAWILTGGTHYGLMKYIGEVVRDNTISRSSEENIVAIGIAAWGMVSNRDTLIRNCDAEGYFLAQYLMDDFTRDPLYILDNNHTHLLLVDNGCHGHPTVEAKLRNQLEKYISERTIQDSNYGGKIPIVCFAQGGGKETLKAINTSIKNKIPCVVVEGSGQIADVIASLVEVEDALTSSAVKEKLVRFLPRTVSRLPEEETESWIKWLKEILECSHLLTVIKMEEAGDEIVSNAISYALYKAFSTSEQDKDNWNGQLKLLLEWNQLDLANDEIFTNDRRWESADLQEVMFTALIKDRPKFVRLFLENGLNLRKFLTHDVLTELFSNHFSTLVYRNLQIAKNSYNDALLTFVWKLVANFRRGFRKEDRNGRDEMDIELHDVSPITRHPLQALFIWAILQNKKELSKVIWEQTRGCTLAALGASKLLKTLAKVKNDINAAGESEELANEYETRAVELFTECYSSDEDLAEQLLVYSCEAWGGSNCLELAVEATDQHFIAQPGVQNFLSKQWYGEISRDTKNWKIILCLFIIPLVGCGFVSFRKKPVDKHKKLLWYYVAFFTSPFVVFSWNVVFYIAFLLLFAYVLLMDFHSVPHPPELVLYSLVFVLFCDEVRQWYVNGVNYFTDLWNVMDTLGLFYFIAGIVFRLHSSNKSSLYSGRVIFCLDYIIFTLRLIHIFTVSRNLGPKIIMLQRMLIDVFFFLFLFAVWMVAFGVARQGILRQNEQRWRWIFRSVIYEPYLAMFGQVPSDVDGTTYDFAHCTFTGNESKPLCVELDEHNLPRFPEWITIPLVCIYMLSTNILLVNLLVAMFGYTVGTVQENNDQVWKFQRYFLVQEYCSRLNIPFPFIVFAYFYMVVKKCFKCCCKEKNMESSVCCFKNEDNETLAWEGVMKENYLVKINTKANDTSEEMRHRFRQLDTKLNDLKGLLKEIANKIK

EC50 [nM]	SMILES
300 to 1000	CSC(C)C(=O)N1CCCCC1c1nc(-c2ccc3nccnc3c2)c[nH]1 (stereo not drawn) [Compound 116, 2-(methylthio)-1-(2-(4-(quinoxalin-6-yl)-1H-imidazol-2-yl)piperidin-1-yl)propan-1-one]
< 50	CSC(C)C(=O)N1CCCCC1c1nc(-c2ccc(C(F)(F)F)s2)c[nH]1 (stereo not drawn) [Compound 109, 2-(methylthio)-1-(2-(4-(5-(trifluoromethyl)thiophen-2-yl)-1H-imidazol-2-yl)piperidin-1-yl)propan-1-one]
300 to 1000	CSC(C)C(=O)N1CCCCC1c1ncc(-c2ccccc2C#N)[nH]1 (stereo not drawn) [Compound 89, 2-(2-(1-(2-(methylthio)propanoyl)piperidin-2-yl)-1H-imidazol-5-yl)benzonitrile]
300 to 1000	Cc1ccc(-c2cnc(C3CCCCN3C(=O)C3CCOC3)[nH]2)cc1 (stereo not drawn) [Compound 14, (tetrahydrofuran-3-yl)(2-(5-(p-toly)-1H-imidazol-2-yl)piperidin-1-yl)methanone]
< 50	CS[C@@H](C)C(=O)N1CCCC[C@@H]1c1ncc(-c2ccc(C)cc2)[nH]1 [Compound 12, (S)-2-(methylthio)-1-((R)-2-(5-(p-tolyl)-1H-imidazol-2-yl)piperidin-1-yl)propan-1-one]
< 50	CCC(C)C(=O)N1CCCCC1c1nc(-c2ccc(C)cc2)co1 (stereo not drawn) [Compound 208, 2-methyl-1-(2-(4-(p-tolyl)oxazol-2-yl)piperidin-1-yl)butan-1-one]
< 50	CSC(C)C(=O)N1CCCCC1c1nnc(-c2ccc(F)cc2)[nH]1 (stereo not drawn) [Compound 79, 1-(2-(5-(4-fluorophenyl)-4H-1,2,4-triazol-3-yl)piperidin-1-yl)-2-(methylthio)propan-1-one]
50 to 300	COc1cccc(-c2cnc(C3CCCCN3C(=O)C(C)SC)[nH]2)c1 (stereo not drawn) [Compound 68, 1-(2-(5-(3-methoxyphenyl)-1H-imidazol-2-yl)piperidin-1-yl)-2-(methylthio)propan-1-one]
< 50	CSC(C)C(=O)N1CCCCC1c1nc(-c2cc(F)c(C#N)cc2F)c[nH]1 (stereo not drawn) [Compound 146, 2,5-difluoro-4-(2-(1-(2-(methylthio)propanoyl)piperidin-2-yl)-1H-imidazol-4-yl)benzonitrile]
< 50	CSC(C)C(=O)N1CCCCC1c1nc(-c2ccc3c(c2)OC(F)(F)O3)c[nH]1 (stereo not drawn) [Compound 17, 1-(2-(4-(2,2-difluorobenzo[d][1,3]dioxol-5-yl)-1H-imidazol-2-yl)piperidin-1-yl)-2-(methylthio)propan-1-one]
< 50	C=C(C)C(=O)N1CCCCC1c1ncc(-c2ccc(C)cc2)[nH]1 (stereo not drawn) [Compound 169, 2-methyl-1-(2-(5-(p-tolyl)-1H-imidazol-2-yl)piperidin-1-yl)prop-2-en-1-one]
1000 to 35000	O=C(CSC(F)(F)F)N1CCCCC1c1nc(-c2ccccc2)c[nH]1 (stereo not drawn) [Compound 48, 1-(2-(4-phenyl-1H-imidazol-2-yl)piperidin-1-yl)-2-((trifluoromethyl)thio)ethan-1-one]
300 to 1000	CC(CC(F)(F)F)C(=O)N1CCCCC1c1nc(-c2ccccc2)c[nH]1 (stereo not drawn) [Compound 183, 4,4,4-trifluoro-2-methyl-1-(2-(4-phenyl-1H-imidazol-2-yl)piperidin-1-yl)butan-1-one]
1000 to 35000	CO[C@@H]1C[C@H]1C(=O)N1CCCCC1c1nc(-c2ccccc2)c[nH]1 (relative stereo) [Compound 5, (trans-2-methoxycyclopropyl)(2-(4-phenyl-1H-imidazol-2-yl)piperidin-1-yl)methanone]
300 to 1000	O=C(C1CSC1)N1CCCCC1c1nc(-c2ccccc2)c[nH]1 (stereo not drawn) [Compound 2, (2-(4-phenyl-1H-imidazol-2-yl)piperidin-1-yl)(thietan-3-yl)methanone]
50 to 300	CCC(C)C(=O)N1CCCCC1c1ncc(-c2ccccc2C)[nH]1 (stereo not drawn) [Compound 200, 2-methyl-1-(2-(5-(o-tolyl)-1H-imidazol-2-yl)piperidin-1-yl)butan-1-one]
1000 to 35000	CSC(C)C(=O)N1CCCCC1c1nc(-c2ccc(CN(C)C)s2)c[nH]1 (stereo not drawn) [Compound 42, 1-(2-(4-(5-((dimethylamino)methyl)thiophen-2-yl)-1H-imidazol-2-yl)piperidin-1-yl)-2-(methylthio)propan-1-one]
1000 to 35000	CSC(C)C(=O)N1CCCCC1c1nc(-c2ccc(S(C)(=O)=O)cc2)c[nH]1 (stereo not drawn) [Compound 34, 1-(2-(4-(4-(methylsulfonyl)phenyl)-1H-imidazol-2-yl)piperidin-1-yl)-2-(methylthio)propan-1-one]

EC50 [nM]	SMILES
< 50	CSC(C)C(=O)N1CCCCC1c1ncc(-c2ccc(CC#N)cc2)[nH]1 (stereo not drawn) [Compound 196, 2-(4-(2-(1-(2-(methylthio)propanoyl)piperidin-2-yl)-1H-imidazol-5-yl)phenyl)acetonitrile]
1000 to 35000	COc1ccc(-c2cnc(C3CCCCN3C(=O)C(C)SC)[nH]2)cc1OC (stereo not drawn) [Compound 62, 1-(2-(5-(3,4-dimethoxyphenyl)-1H-imidazol-2-yl)piperidin-1-yl)-2-(methylthio)propan-1-one]
1000 to 35000	N#C[C@@H]1C[C@@H]1C(=O)N1CCCCC1c1nc(-c2ccccc2)c[nH]1 (relative stereo) [Compound 90, cis-2-(2-(4-phenyl-1H-imidazol-2-yl)piperidine-1-carbonyl)cyclopropane-1-carbonitrile]
300 to 1000	CSC(C)C(=O)N1CCCCC1c1nc(-c2cccnc2)c[nH]1 (stereo not drawn) [Compound 113, 2-(methylthio)-1-(2-(4-(pyridin-3-yl)-1H-imidazol-2-yl)piperidin-1-yl)propan-1-one]
50 to 300	C/C=C(\C)C(=O)N1CCCCC1c1ncc(-c2ccc(F)c(F)c2)[nH]1 (stereo not drawn) [Compound 8, (E)-1-(2-(5-(3,4-difluorophenyl)-1H-imidazol-2-yl)piperidin-1-yl)-2-methylbut-2-en-1-one]
50 to 300	CC(C(=O)N1CCCCC1c1nc(-c2ccccc2)c[nH]1)c1ccco1 (stereo not drawn) [Compound 97, 2-(furan-2-yl)-1-(2-(4-phenyl-1H-imidazol-2-yl)piperidin-1-yl)propan-1-one]
< 50	CSC(C)C(=O)N1CCNCC1c1ncc(-c2ccc(C)cc2)[nH]1 (stereo not drawn) [Compound 206, 2-(methylthio)-1-(2-(5-(p-toly)-1H-imidazol-2-yl)piperazin-1-yl)propan-1-one]
300 to 1000	CSC(C)C(=O)N1CCCCC1c1nc(-c2cccc(CN(C)C)c2)c[nH]1 (stereo not drawn) [Compound 25, 1-(2-(4-(3-((dimethylamino)methyl)phenyl)-1H-imidazol-2-yl)piperidin-1-yl)-2-(methylthio)propan-1-one]
50 to 300	CSC(C)C(=O)N1CCCCC1c1nc(-c2cscc2C(F)F)c[nH]1 (stereo not drawn) [Compound 33]
< 50	CSC(C)C(=O)N1CCCCC1c1nc(-c2ccc(C)c(Cl)c2)c[nH]1 (stereo not drawn) [Compound 28, 1-(2-(4-(3-chloro-4-methylphenyl)-1H-imidazol-2-yl)piperidin-1-yl)-2-(methylthio)propan-1-one]
50 to 300	CNCC(=O)Nc1ccc(-c2cnc(C3CCCCN3C(=O)C(C)SC)[nH]2)cc1 (stereo not drawn) [Compound 100, 2-(methylamino)-N-(4-(2-(1-(2-(methylthio)propanoyl)piperidin-2-yl)-1H-imidazol-5-yl)phenyl)acetamide]
1000 to 35000	CSC(C)C(=O)N1CCCCC1c1nc(-c2ccc(S(=O)(=O)NCCO)cc2)c[nH]1 (stereo not drawn) [Compound 189, N-(2-hydroxyethyl)-4-(2-(1-(2-(methylthio)propanoyl)piperidin-2-yl)-1H-imidazol-4-yl)benzenesulfonamide]
< 50	COc1ccc(-c2cnc(C3CCCCN3C(=O)C(C)SC)[nH]2)cc1 (stereo not drawn) [Compound 81, 1-(2-(5-(4-methoxyphenyl)-1H-imidazol-2-yl)piperidin-1-yl)-2-(methylthio)propan-1-one]
< 50	CSC(C)C(=O)N1CCCCC1c1nc(-c2ccc(C#N)cc2)c[nH]1 (stereo not drawn) [Compound 181, 4-(2-(1-(2-(methylthio)propanoyl)piperidin-2-yl)-1H-imidazol-4-yl)benzonitrile]
1000 to 35000	O=C(CC1CC1)N1CCCCC1c1nc(-c2ccccc2)c[nH]1 (stereo not drawn) [Compound 150, 2-cyclopropyl-1-(2-(4-phenyl-1H-imidazol-2-yl)piperidin-1-yl)ethan-1-one]
300 to 1000	CSc1cc(C)c(-c2cnc(C3CCCCN3C(=O)C(C)SC)[nH]2)cn1 (stereo not drawn) [Compound 82, 1-(2-(5-(4-methyl-6-(methylthio)pyridin-3-yl)-1H-imidazol-2-yl)piperidin-1-yl)-2-(methylthio)propan-1-one]
1000 to 35000	CSC(C)C(=O)N1CCC[C@@H]1c1ncc(-c2ccccc2)[nH]1 (stereo partly drawn) [Compound 136, 2-(methylthio)-1-((R)-2-(5-phenyl-1H-imidazol-2-yl)pyrrolidin-1-yl)propan-1-one]
50 to 300	COc1ccc(-c2cnc(C3CCCCN3C(=O)C(C)SC)[nH]2)cn1 (stereo not drawn) [Compound 84, 1-(2-(5-(6-methoxypyridin-3-yl)-1H-imidazol-2-yl)piperidin-1-yl)-2-(methylthio)propan-1-one]
